# Source: ChEMBL document CHEMBL3045613, “Effects of sublethal glyphosate rates on fresh market tomato” (Crop Prot, 2007)
# Columns and labels:
# Format in all cases: organism-based
# Set-up in all cases: scale not given: the % may be the effect or the level left
# [1] = system: Solanum lycopersicum; test: Phytotoxicity against Solanum lycopersicum (tomato) plant assessed as decrease in marketable yeild at 150 mg/L applied 1 days prior to transplantation for 10 secs measured after 4 weeks relative to untreated-control; conditions: in vivo
# [2] = system: Solanum lycopersicum; test: Phytotoxicity against Solanum lycopersicum (tomato) plant assessed as decrease in vigour at 100 mg/L applied 1 days prior to transplantation for 10 secs measured after 4 weeks relative to untreated-control; conditions: in vivo
# [3] = system: Solanum lycopersicum; test: Phytotoxicity against Solanum lycopersicum (tomato) plant assessed as decrease in plant height at 25 mg/L applied 1 days prior to transplantation for 10 secs measured after 4 weeks relative to untreated-control; conditions: in vivo
# [4] = system: Solanum lycopersicum; test: Phytotoxicity against Solanum lycopersicum (tomato) plant assessed as decrease in plant height at 150 mg/L applied 1 days prior to transplantation for 10 secs measured after 4 weeks relative to untreated-control; conditions: in vivo, other
# [5] = system: Solanum lycopersicum; test: Phytotoxicity against Solanum lycopersicum (tomato) plant assessed as decrease in plant height at 200 mg/L applied 1 days prior to transplantation for 10 secs measured after 4 weeks relative to untreated-control; conditions: in vivo
# [6] = system: Solanum lycopersicum; test: Phytotoxicity against Solanum lycopersicum (tomato) plant assessed as decrease in vigour at 25 mg/L applied 1 days prior to transplantation for 10 secs measured after 4 weeks relative to untreated-control; conditions: in vivo
# [7] = system: Solanum lycopersicum; test: Phytotoxicity against Solanum lycopersicum (tomato) plant assessed as decrease in vigour at 100 mg/L applied 1 days prior to transplantation for 10 secs measured after 2 weeks relative to untreated-control; conditions: in vivo
# [8] = system: Solanum lycopersicum; test: Phytotoxicity against Solanum lycopersicum (tomato) plant assessed as decrease in marketable yeild at 25 mg/L applied 1 days prior to transplantation for 10 secs measured after 4 weeks relative to untreated-control; conditions: in vivo
# [9] = system: Solanum lycopersicum; test: Phytotoxicity against Solanum lycopersicum (tomato) plant assessed as decrease in vigour at 150 to 200 mg/L applied 1 days prior to transplantation for 10 secs measured after 4 weeks relative to untreated-control; conditions: in vivo
# [10] = system: Solanum lycopersicum; test: Phytotoxicity against Solanum lycopersicum (tomato) plant assessed as decrease in plant height at 100 mg/L applied 1 days prior to transplantation for 10 secs measured after 4 weeks relative to untreated-control; conditions: in vivo
# [11] = system: Solanum lycopersicum; test: Phytotoxicity against Solanum lycopersicum (tomato) plant assessed as decrease in vigour at 50 mg/L applied 1 days prior to transplantation for 10 secs measured after 4 weeks relative to untreated-control; conditions: in vivo
# [12] = system: Solanum lycopersicum; test: Phytotoxicity against Solanum lycopersicum (tomato) plant assessed as decrease in vigour at 25 mg/L applied 1 days prior to transplantation for 10 secs measured after 2 weeks relative to untreated-control; conditions: in vivo
smiles,measurement,setting,value
O=C(O)CNCP(=O)(O)O [GLYPHOSATE],Activity,[1],> 98%
same,Activity,[2],58%
same,Activity,[3],29%
same,Activity,[4],72%
same,Activity,[5],75%
same,Activity,[6],36%
same,Activity,[7],<= 50%
same,Activity,[8],41%
same,Activity,[9],<= 15%
same,Activity,[10],65%
same,Activity,[11],36%
same,Activity,[12],78%
